Values after ≈ are worked out from the molar mass of the structure shown.
Legend:
S. aureus DSM 20231 [1] = test system: S. aureus DSM 20231
S. pneumoniae D39V [2] = test system: S. pneumoniae D39V
S. pneumoniae D39V [3] = test: fitness (endpoint OD595 vs no drug) (fraction); higher = more growth
Summary of the method: (§1)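 Fitness was measured as bacterial growth in 384-well plates inoculated at OD595 0.01 (30 µl, or 55 µl for S. pneumoniae). Media were TSB, LB Lennox or CY, at 37 °C. OD595 was read every 30 min for 14 h and background-subtracted against the first reading. Fitness is OD595 at the transition into stationary phase divided by the robust mean of no-drug control wells, capped at 1.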

B. subtilis 168 [4] = test: as above
Summary of the method: as §1

S. aureus Newman [5] = test system: S. aureus Newman
B. subtilis 168 [6] = test system: B. subtilis 168
S. aureus Newman [7] = test: fitness (endpoint OD595 vs no drug) (fraction); higher = more growth
Summary of the method: as §1

S. aureus DSM 20231 [8] = test: as above
Summary of the method: as §1

S. aureus Newman [9] = test: Bliss interaction score (quartile over a dose matrix) (fitness difference); higher = more antagonism (negative = synergy)
Summary of the method: (§2)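 Growth was read as OD595 when cultures entered stationary phase, and each value was divided by the plate's robust no-drug mean and capped at 1. This normalised ratio is the fitness value, and fitness for each single drug came from the combination data. The Bliss score subtracts the expected fitness, taken as the product, from the observed fitness and is given as quartiles across technical, biological and donor/recipient replicates.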

S. aureus DSM 20231 [10] = test: as above
Summary of the method: as §2

S. pneumoniae D39V [11] = test: as above
Summary of the method: as §2

B. subtilis 168 [12] = test: as above
Summary of the method: as §2
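Throughout, for Bliss interaction score (quartile over a dose matrix): first quartile when negative (synergy) and third quartile when positive (antagonism).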

C[C@H]1COc2c(N3CCN(C)CC3)c(F)cc3c(=O)c(C(=O)O)cn1c23 [Levofloxacin]
Settings	MIC [µg/mL]
S. aureus DSM 20231 [1]	0.15 (≈ 0.415 µM)
S. pneumoniae D39V [2]	2 (≈ 5.53 µM)

fitness
Settings	0.002 µg/mL	0.0039 µg/mL	0.0078 µg/mL	0.0312 µg/mL	0.0625 µg/mL	0.125 µg/mL	0.2 µg/mL	0.4 µg/mL	0.8 µg/mL
B. subtilis 168 [4]	0.932	0.928	0.916	0.0401	0.0424	0.0419	–	–	–
S. pneumoniae D39V [3]	–	–	–	–	–	–	0.931	0.789	0.468

Cn1nnc(-c2ccc(-c3ccc(N4C[C@H](CO)OC4=O)cc3F)cn2)n1 [Tedizolid]
Settings	MIC [µg/mL]
B. subtilis 168 [6]	0.5 (≈ 1.35 µM)
S. aureus DSM 20231 [1]	0.3 (≈ 0.81 µM)
S. aureus Newman [5]	0.3 (≈ 0.81 µM)
S. pneumoniae D39V [2]	0.125 (≈ 0.338 µM)

fitness
Settings	0.0312 µg/mL	0.0625 µg/mL	0.125 µg/mL	0.25 µg/mL	0.5 µg/mL
B. subtilis 168 [4]	0.943	0.901	0.643	–	–
S. aureus DSM 20231 [8]	–	0.923	0.809	0.229	–
S. aureus Newman [7]	–	0.936	0.859	0.434	–
S. pneumoniae D39V [3]	–	–	0.719	0.416	0.168

CCN(CC)CCOC(=O)c1ccc(N)cc1 [Procaine]
Settings	MIC [µg/mL]
B. subtilis 168 [6]	> 342
S. aureus DSM 20231 [1]	> 342
S. aureus Newman [5]	> 342
S. pneumoniae D39V [2]	> 342

fitness
Settings	B. subtilis 168 [4]	S. aureus DSM 20231 [8]	S. aureus Newman [7]	S. pneumoniae D39V [3]
85.5 µg/mL	0.922	0.999	0.982	0.995
171 µg/mL	0.918	0.998	0.972	≥ 1
342 µg/mL	0.91	0.999	0.95	0.977

CO/N=C(\C(=O)N[C@@H]1C(=O)N2C(C(=O)[O-])=C(C[N+]3(C)CCCC3)CS[C@H]12)c1csc(N)n1 [Cefepime]
Settings	MIC [µg/mL]
B. subtilis 168 [6]	0.25 (≈ 0.52 µM)
S. aureus DSM 20231 [1]	0.556 (≈ 1.16 µM)
S. aureus Newman [5]	0.556 (≈ 1.16 µM)
S. pneumoniae D39V [2]	0.031 (≈ 0.0645 µM)

Settings	fitness
B. subtilis 168 [4], 0.0625 µg/mL	0.872
B. subtilis 168 [4], 0.125 µg/mL	0.729
B. subtilis 168 [4], 0.25 µg/mL	0.432
S. aureus DSM 20231 [8], 0.125 µg/mL	≥ 1
S. aureus DSM 20231 [8], 0.25 µg/mL	0.996
S. aureus DSM 20231 [8], 0.5 µg/mL	0.935
S. aureus Newman [7], 0.125 µg/mL	0.924
S. aureus Newman [7], 0.25 µg/mL	0.872
S. aureus Newman [7], 0.5 µg/mL	0.784
S. pneumoniae D39V [3], 0.0078 µg/mL	≥ 1
S. pneumoniae D39V [3], 0.0155 µg/mL	0.993
S. pneumoniae D39V [3], 0.031 µg/mL	0.696

CCCCCCCCCC(=O)N[C@@H](Cc1c[nH]c2ccccc12)C(=O)N[C@H](CC(N)=O)C(=O)N[C@@H](CC(=O)O)C(=O)N[C@@H]1C(=O)NCC(=O)N[C@@H](CCCN)C(=O)N[C@@H](CC(=O)O)C(=O)N[C@H](C)C(=O)N[C@@H](CC(=O)O)C(=O)NCC(=O)N[C@H](CO)C(=O)N[C@@H]([C@H](C)CC(=O)O)C(=O)N[C@@H](CC(=O)c2ccccc2N)C(=O)O[C@@H]1C [Daptomycin] + CC1=C\[C@@H](O)CC(=O)Cc2nc(co2)C(=O)N2CCC=C2C(=O)O[C@H](C(C)C)[C@H](C)/C=C/C(=O)NC\C=C\1 [Virginiamycin M1]
fitness
Settings	first compound 0.125 µg/mL	first compound 0.25 µg/mL	first compound 0.5 µg/mL	first compound 1 µg/mL	first compound 2 µg/mL	first compound 4 µg/mL
B. subtilis 168 [4], partner 0.0625 µg/mL	0.946	0.924	0.894	–	–	–
B. subtilis 168 [4], partner 0.125 µg/mL	0.92	0.931	0.862	–	–	–
B. subtilis 168 [4], partner 0.25 µg/mL	0.93	0.934	0.891	–	–	–
S. aureus DSM 20231 [8], partner 0.0625 µg/mL	–	–	≥ 1	≥ 1	0.966	–
S. aureus DSM 20231 [8], partner 0.125 µg/mL	–	–	≥ 1	≥ 1	0.959	–
S. aureus DSM 20231 [8], partner 0.25 µg/mL	0.944	0.918	≥ 1	≥ 1	0.972	–
S. aureus Newman [7], partner 0.0625 µg/mL	≥ 1	≥ 1	0.981	–	–	–
S. aureus Newman [7], partner 0.125 µg/mL	≥ 1	≥ 1	0.994	–	–	–
S. aureus Newman [7], partner 0.25 µg/mL	0.984	0.999	0.975	–	–	–
S. pneumoniae D39V [3], partner 0.5 µg/mL	–	–	–	0.991	0.984	0.976
S. pneumoniae D39V [3], partner 1 µg/mL	–	–	–	0.992	≥ 1	0.997
S. pneumoniae D39V [3], partner 2 µg/mL	–	–	–	0.909	0.927	0.919

one replicate
Settings	fitness
B. subtilis 168 [4], first compound 1 µg/mL, partner 0.0625 µg/mL	0.702
B. subtilis 168 [4], first compound 1 µg/mL, partner 0.125 µg/mL	0.698
B. subtilis 168 [4], first compound 1 µg/mL, partner 0.25 µg/mL	0.765
S. aureus DSM 20231 [8], first compound 0.125 µg/mL, partner 0.0625 µg/mL	0.898
S. aureus DSM 20231 [8], first compound 0.125 µg/mL, partner 0.125 µg/mL	≥ 1
S. aureus DSM 20231 [8], first compound 0.125 µg/mL, partner 0.5 µg/mL	0.906
S. aureus DSM 20231 [8], first compound 0.125 µg/mL, partner 1 µg/mL	0.887
S. aureus DSM 20231 [8], first compound 0.25 µg/mL, partner 0.0625 µg/mL	0.855
S. aureus DSM 20231 [8], first compound 0.25 µg/mL, partner 0.125 µg/mL	≥ 1
S. aureus DSM 20231 [8], first compound 0.25 µg/mL, partner 0.5 µg/mL	0.92
S. aureus DSM 20231 [8], first compound 0.25 µg/mL, partner 1 µg/mL	0.838
S. aureus DSM 20231 [8], first compound 0.5 µg/mL, partner 0.5 µg/mL	0.908
S. aureus DSM 20231 [8], first compound 0.5 µg/mL, partner 1 µg/mL	0.848
S. aureus Newman [7], first compound 0.5 µg/mL, partner 0.5 µg/mL	0.894
S. aureus Newman [7], first compound 0.5 µg/mL, partner 1 µg/mL	≥ 1
S. aureus Newman [7], first compound 0.5 µg/mL, partner 2 µg/mL	0.882
S. aureus Newman [7], first compound 1 µg/mL, partner 0.5 µg/mL	0.864
S. aureus Newman [7], first compound 1 µg/mL, partner 1 µg/mL	0.948
S. aureus Newman [7], first compound 1 µg/mL, partner 2 µg/mL	0.875
S. aureus Newman [7], first compound 2 µg/mL, partner 0.5 µg/mL	0.921
S. aureus Newman [7], first compound 2 µg/mL, partner 1 µg/mL	0.989
S. aureus Newman [7], first compound 2 µg/mL, partner 2 µg/mL	0.856
S. pneumoniae D39V [3], first compound 1 µg/mL, partner 0.15 µg/mL	0.892
S. pneumoniae D39V [3], first compound 1 µg/mL, partner 0.3 µg/mL	0.754
S. pneumoniae D39V [3], first compound 2 µg/mL, partner 0.15 µg/mL	0.893
S. pneumoniae D39V [3], first compound 2 µg/mL, partner 0.3 µg/mL	0.84
S. pneumoniae D39V [3], first compound 4 µg/mL, partner 0.15 µg/mL	0.924
S. pneumoniae D39V [3], first compound 4 µg/mL, partner 0.3 µg/mL	0.877

Settings	Bliss interaction score
B. subtilis 168 [12]	-0.0543
S. aureus DSM 20231 [10]	0.0655
S. aureus Newman [9]	0.0243
S. pneumoniae D39V [11]	0.0768

Reference: the supplement of paper PMC10627819
